The source of these data is patent US7183061B2, “Method of expressing Heliothis ecdysone receptor fusion protein” (Syngenta Limited, priority 1996, dated 2007).

Test [1] relates to glucocorticoid receptor transactivating and DNA binding domains fused to the ecdysone receptor hinge and ligand binding domains. Particulars: mammalian cells; cited from earlier work.
Test [2] has as its target chimeric glucocorticoid VP16/Heliothis ecdysone receptor (UniProt O18473+P04150, DEL153-392/E478D/INS403[…]/INS405[…]/M398P/P396A/P400T/P406S/R399P/S397A/Y393A). In words: Maize protoplast GUS reporter assay with pMF6GRVP16HEcR and p221.9GRE6. Type of test: cell-based, Heliothis virescens. On the set-up: expressed in transfected cells; host or cells: maize protoplasts (A10); stably transformed tobacco plants, pES3/pES4 (A11). As for the experimental part: Protoplasts were isolated from a maize suspension culture derived from BE70×A188 embryogenic callus material, which was maintained by subculturing twice weekly in MS0.5mod. (MS medium supplemented with 3% sucrose, 690 mg/l proline, 1 g/l myo-inositol, 0.2 g/l casein acid hydrolysate, 0.5 mg/l 2,4-D, pH 5.6). Cells from suspensions two days post subculture were digested in enzyme mixture (2.0% Cellulase RS, 0.2% Pectolyase Y23, 0.5 M Mannitol, 5 mM CaCl2.2H2O, 0.5% MES, pH 5.6, ˜660 mmol/kg) using ˜10 ml/g cells, incubating at 25° C., dim light, rotating gently for ˜2 hours. The digestion mixture was sieved sequentially through 250 μm and 38 μm sieves, and the filtrate centrifuged at 700 rpm for 3.5 minutes, discarding the supernatant. The protoplasts were resuspended in wash buffer (0.358 M KCl, 1.0 mM NH4NO3, 5.0 mM CaCl2.2H2O, 0.5 mM KH2PO4, pH 4.8, ˜670 mmol/kg) and pelleted as before. This washing step was repeated. The pellet was resuspended in wash buffer and the protoplasts were counted. Transformation was achieved using a Polyethylene glycol method based on Negrutiu et al. Protoplasts were resuspended at 2×10^6/ml in MaMg medium (0.4 M Mannitol, 15 mM MgCl2, 0.1% MES, pH 5.6, ˜450 mmol/kg) aliquotting 0.5 ml/treatment (i.e. 1×10^6 protoplasts/treatment). […] Protein concentrations of tissue homogenates were determined by the Bio-Rad protein assay (Bradford, 1976). […]

Structures are written as SMILES.

chimeric glucocorticoid VP16/Heliothis ecdysone receptor, sequence (P04150+O18473 fused with the stated changes): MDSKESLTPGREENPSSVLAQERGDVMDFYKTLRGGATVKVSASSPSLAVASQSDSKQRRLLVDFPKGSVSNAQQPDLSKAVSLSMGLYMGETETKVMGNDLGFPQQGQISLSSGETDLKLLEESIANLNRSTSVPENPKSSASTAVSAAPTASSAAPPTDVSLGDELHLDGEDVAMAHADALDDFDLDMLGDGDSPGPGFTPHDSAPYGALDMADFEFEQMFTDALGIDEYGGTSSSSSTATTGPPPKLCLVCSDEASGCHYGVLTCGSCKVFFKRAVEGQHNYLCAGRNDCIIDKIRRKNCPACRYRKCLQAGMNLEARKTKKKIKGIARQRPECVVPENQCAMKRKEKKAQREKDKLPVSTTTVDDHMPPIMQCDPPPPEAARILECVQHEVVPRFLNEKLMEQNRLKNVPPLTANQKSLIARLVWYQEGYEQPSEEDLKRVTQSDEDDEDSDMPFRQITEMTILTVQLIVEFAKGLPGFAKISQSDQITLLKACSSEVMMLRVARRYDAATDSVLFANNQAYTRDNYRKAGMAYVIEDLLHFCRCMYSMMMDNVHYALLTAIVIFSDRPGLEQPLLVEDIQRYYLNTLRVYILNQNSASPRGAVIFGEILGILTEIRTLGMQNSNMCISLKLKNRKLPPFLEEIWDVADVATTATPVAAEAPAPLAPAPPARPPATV

In the case of `CC(C)CC[C@@H](O)[C@](C)(O)[C@H]1CC[C@@]2(O)C3=CC(=O)[C@]4(O)C[C@@H](O)[C@@H](O)C[C@]4(C)[C@H]3[C@H](O)C[C@]12C` [Muristerone A], the “activity of chimeric receptor as homodimer” value in test [1] was “active”.

With `CCc1ccc(C(=O)NN(C(=O)c2cc(C)cc(C)c2)C(C)(C)C)cc1` [RH5992, 3,5-dimethylbenzoic acid 1-1(1,1-dimethylethyl)-2(4-ethylbenzoyl)hydrazide], in test [2] (maize protoplasts (FIG. 39)), the “GUS levels relative to positive control (p35SCaMVGUS)” value is on record as “comparable to those observed with the positive control”. Moreover, the “levels of expression relative to pMF6GRHEcR” value in test [2] (maize protoplasts, 100 μM) is “enhanced levels of expression”.
